{
  "source": "patent US20060264493A1",
  "about": "“Tetracyclic pyrazole derivatives as kinase inhibitors, process for their preparation and pharmaceutical compositions comprising them” (priority 2003, published 2006)",
  "data": [
    {"units": {"melting point": "°C"}, "values": [
      {"smiles": "Cl.Nc1ccc2[nH]c3c(c2c1)CCc1cn[nH]c1-3", "melting point": "237 to 241"},
      {"smiles": "Cl.O=C(O)c1n[nH]c2c1CCc1c-2[nH]c2ccccc12", "melting point": "> 260"},
      {"smiles": "O=[N+]([O-])c1ccc2[nH]c3c(c2c1)CCc1c[nH]nc1-3", "note": "[Example 1, 7-Nitro-2,4,5,10-tetrahydropyrazolo[3,4-a]carbazole]", "melting point": "> 260"},
      {"smiles": "O=C(O)c1ccc2[nH]c3c(c2c1)CCc1c[nH]nc1-3", "note": "[Example 2, 2,4,5,10-Tetrahydropyrazolo[3,4-a]carbazole-7-carboxylic acid]", "melting point": "> 260"},
      {"smiles": "O=C(O)c1cccc2[nH]c3c(c12)CCc1c[nH]nc1-3", "note": "[Example 3, 2,4,5,10-Tetrahydropyrazolo[3,4-a]carbazole-6-carboxylic acid]", "melting point": "> 260"},
      {"smiles": "O=C(O)c1ccc2c3c([nH]c2c1)-c1n[nH]cc1CC3", "note": "[Example 4, 2,4,5,10-Tetrahydropyrazolo[3,4-a]carbazole-8-carboxylic acid]", "melting point": "> 260"},
      {"smiles": "CCOC(=O)c1[nH]nc2c1CCc1c-2[nH]c2ccccc12", "note": "[Example 5, Ethyl 2,4,5,10-tetrahydropyrazolo[3,4-a]carbazole-3-carboxylate]", "melting point": "224 to 226"},
      {"smiles": "CC(C)CC(=O)Nc1ccc2[nH]c3c(c2c1)CCc1cn[nH]c1-3", "note": "[Example 7, 3-Methyl-N-(1,4,5,10-tetrahydropyrazolo[3,4-a]carbazol-7-yl)butanamide]", "melting point": "182 to 185"},
      {"smiles": "O=C(Nc1ccc2[nH]c3c(c2c1)CCc1cn[nH]c1-3)c1cccs1", "note": "[Example 8, N-(1,4,5,10-tetrahydropyrazolo[3,4-a]carbazol-7-yl) thiophene-2-carboxamide]", "melting point": "176 to 180"},
      {"smiles": "CC(C)CNC(=O)c1ccc2[nH]c3c(c2c1)CCc1cn[nH]c1-3", "note": "[Example 9, N-isobutyl-1,4,5,10-tetrahydropyrazolo[3,4-a]carbazole-7-carboxamide]", "melting point": "186 to 190"},
      {"smiles": "CN1CCN(C(=O)c2ccc3[nH]c4c(c3c2)CCc2cn[nH]c2-4)CC1", "note": "[Example 10, 7-[(4-Methylpiperazin-1-yl)carbonyl]-1,4,5,10-tetrahydropyrazolo[3,4-a]carbazole]", "melting point": "198 to 205"},
      {"smiles": "CCOC(=O)c1ccc2[nH]c3c(c2c1)CCc1cn[nH]c1-3", "note": "[Example 11, Ethyl 1,4,5,10-tetrahydropyrazolo[3,4-a]carbazole-7-carboxylate]", "melting point": "214 to 216"},
      {"smiles": "COC(=O)c1ccc2c3c([nH]c2c1)-c1[nH]ncc1CC3", "note": "[Example 12, Methyl 1,4,5,10-tetrahydropyrazolo[3,4-a]carbazole-8-carboxylate]", "melting point": "240 to 243"}
    ]}
  ]
}
